The target in the assay is T1, AA (Homo sapiens, UniProt O14965).
T1 sequence (O14965 1-403): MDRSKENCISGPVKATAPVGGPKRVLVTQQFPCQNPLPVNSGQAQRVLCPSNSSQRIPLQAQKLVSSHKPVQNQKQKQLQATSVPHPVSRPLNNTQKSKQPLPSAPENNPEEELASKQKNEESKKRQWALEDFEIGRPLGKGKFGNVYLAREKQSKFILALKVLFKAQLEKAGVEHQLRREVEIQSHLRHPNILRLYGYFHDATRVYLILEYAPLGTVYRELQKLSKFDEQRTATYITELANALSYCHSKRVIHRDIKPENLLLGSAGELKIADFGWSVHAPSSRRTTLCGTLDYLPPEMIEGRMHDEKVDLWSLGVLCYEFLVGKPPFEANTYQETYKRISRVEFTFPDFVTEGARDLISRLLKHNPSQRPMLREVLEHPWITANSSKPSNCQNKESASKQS
Kind of assay: AA IC50 (Table 1; no method given). The format is biochemical. The conditions noted are these: Table 2, AurA IC50; class symbols; read-out: AurA IC50.
Regarding `CN1C(=O)CCN(CC2CC2)c2nc(Nc3ccc4c(c3)CS(=O)(=O)C4)ncc21` [compound 114, 9-Cyclopropylmethyl-2-(2,2-dioxo-2,3-dihydro-1H-2lambda*6*-benzo[c]thiophen-5-ylamino)-5-methyl-5,7,8,9-tetrahydro-pyrimido[4,5-b][1,4]diazepin-6-one], the IC50 is under 0.1 µM.

With `Cc1cc(Nc2ncc3c(n2)N(C2CCCC2)CCC(=O)N3C)ccc1Cl` [compound 72, 2-(4-Chloro-3-methyl-phenylamino)-9-cyclopentyl-5-methyl-5,7,8,9-tetrahydro-pyrimido[4,5-b][1,4]diazepin-6-one], the IC50 was under 1 µM.

For the compound `CCC(CC)N1CCC(=O)N(CC)c2cnc(Nc3ccc4c(c3)CS(=O)(=O)C4)nc21` [compound 120, 2-(2,2-Dioxo-2,3-dihydro-1H-2lambda*6*- benzo[c]thiophen-5-ylamino)-5-ethyl-9-(1-ethyl-propyl)-5,7,8,9-tetrahydro-pyrimido[4,5-b][1,4]diazepin-6-one], the IC50 was under 0.1 µM.

`CC(=O)Nc1ccc(Nc2ncc3c(n2)N(C2CCCC2)CCC(=O)N3C)cc1C(F)(F)F` [compound 286, N-[4-(9-Cyclopentyl-5-methyl-6-oxo-6,7,8,9-tetrahydro-5H-pyrimido[4,5-b][1,4]diazepin-2-ylamino)-2-trifluoromethyl-phenyl]-acetamide]: the 50% inhibitory concentration (IC50) was under 1 µM.

Turning to `CN1C(=O)CCN(c2ccc(C(C)(C)C)cc2)c2nc(Nc3ccc4c(c3)CS(=O)(=O)C4)ncc21` [compound 334, 9-(4-tert-Butyl-phenyl)-2-(2,2-dioxo-2,3-dihydro-1H-2lambda*6*-benzo[c]thiophen-5-ylamino)-5-methyl-5,7,8,9-tetrahydro-pyrimido[4,5-b][1,4]diazepin-6-one], the IC50 is under 10 µM.

With `COc1ccccc1N1CCC(=O)N(C)c2cnc(Nc3ccc4c(c3)CS(=O)(=O)C4)nc21` [compound 133, 2-(2,2-Dioxo-2,3-dihydro-1H-2lambda*6*- benzo[c]thiophen-5-ylamino)-9-(2-methoxy-phenyl)-5-methyl-5,7,8,9-tetrahydro-pyrimido[4,5-b][1,4]diazepin-6-one], the 50% inhibitory concentration (IC50) is under 1 µM.

On to `CN1CCC(NC(=O)c2ccc(Nc3ncc4c(n3)N(C3CCCC3)CCC(=O)N4C)cc2)CC1` [compound 64, 4-(9-Cyclopentyl-5-methyl-6-oxo-6,7,8,9-tetrahydro-5H-pyrimido[4,5-b][1,4]diazepin-2-ylamino)-N-(1-methyl-piperidin-4-yl)-benzamide], for which the IC50 was under 0.1 µM.

Consider `CCN1C(=O)CCN(c2ccc(N3CCOCC3)cc2)c2nc(Nc3ccc4c(c3)CS(=O)(=O)C4)ncc21` [compound 338, 2-(2,2-Dioxo-2,3-dihydro-1H-2lambda*6*- benzo[c]thiophen-5-ylamino)-5-ethyl-9-(4-morpholin-4-yl-phenyl)-5,7,8,9-tetrahydro-pyrimido[4,5-b][1,4]diazepin-6-one], for which the IC50 is under 1 µM.

`CC(=O)NS(=O)(=O)c1ccc(Nc2ncc3c(n2)N(c2ccc(N4CCOCC4)cc2)CCC(=O)N3C)cc1` [compound 352]: the IC50 is under 1 µM.

Regarding `CN1C(=O)CCN(C2CCOCC2)c2nc(Nc3ccc4c(c3)CS(=O)(=O)C4)ncc21` [compound 81, 2-(2,2-Dioxo-2,3-dihydro-1H-2lambda*6*- benzo[c]thiophen-5-ylamino)-5-methyl-9-(tetrahydro-pyran-4-yl)-5,7,8,9-tetrahydro-pyrimido[4,5-b][1,4]diazepin-6-one], the IC50 was under 1 µM.

Turning to `CCN1C(=O)CCN(C(C)(C)C)c2nc(Nc3ccc4c(c3)CS(=O)(=O)C4)ncc21` [compound 122, 9-tert-Butyl-2-(2,2-dioxo-2,3-dihydro-1H-2lambda*6*-benzo[c]thiophen-5-ylamino)-5-ethyl-5,7,8,9-tetrahydro-pyrimido[4,5-b][1,4]diazepin-6-one], the IC50 was under 1 µM.

Take `CCC(CC)N1CCC(=O)N(C)c2cnc(Nc3ccc4c(c3)CS(=O)(=O)C4)nc21` [compound 79, 2-(2,2-Dioxo-2,3-dihydro-1H-2lambda*6*- benzo[c]thiophen-5-ylamino)-9-(1-ethyl-propyl)-5-methyl-5,7,8,9-tetrahydro-pyrimido[4,5-b][1,4]diazepin-6-one]: the IC50 was under 0.1 µM.

As to `CCN1C(=O)CCN(c2ccc(C)cc2)c2nc(Nc3ccc(NC(=O)C4CC4)c(C)c3)ncc21` [compound 328, Cyclopropanecarboxylic acid [4-(5-ethyl-6-oxo-9-p-tolyl-6,7,8,9-tetrahydro-5H-pyrimido[4,5-b][1,4]diazepin-2-ylamino)-2-methyl-phenyl]-amide], the IC50 is under 10 µM.

Consider `CCN1C(=O)CCN(c2ccc(OC)cc2)c2nc(Nc3ccc4c(c3)CS(=O)(=O)C4)ncc21` [compound 333, 2-(2,2-Dioxo-2,3-dihydro-1H-2lambda*6*- benzo[c]thiophen-5-ylamino)-5-ethyl-9-(4-methoxy-phenyl)-5,7,8,9-tetrahydro-pyrimido[4,5-b][1,4]diazepin-6-one], for which the IC50 is under 0.1 µM.

Take `COc1ccc(N2CCN(c3ncc4c(n3)N(C3CCCC3)CCC(=O)N4C)CC2)cc1` [compound 213, 9-Cyclopentyl-2-[4-(4-methoxy-phenyl)-piperazin-1-yl]-5-methyl-5,7,8,9-tetrahydro-pyrimido[4,5-b][1,4]diazepin-6-one]: the 50% inhibitory concentration (IC50) was under 10 µM.

As for `Cc1cc(Nc2ncc3c(n2)N(C2CCCC2)CCC(=O)N3C)ccc1N(S(C)(=O)=O)S(C)(=O)=O` [compound 288], the IC50 was under 0.1 µM.

Turning to `CN1C(=O)CCN(Cc2ccccc2)c2nc(Nc3ccc4c(c3)CS(=O)(=O)C4)ncc21` [compound 82, 9-Benzyl-2-(2,2-dioxo-2,3-dihydro-1H-2lambda*6*-benzo[c]thiophen-5-ylamino)-5-methyl-5,7,8,9-tetrahydro-pyrimido[4,5-b][1,4]diazepin-6-one], the concentration for half-maximal inhibition (IC50) is under 1 µM.

For `CC(C)CCN1CCC(=O)N(C)c2cnc(Nc3ccc4c(c3)CS(=O)(=O)C4)nc21` [compound 116, 2-(2,2-Dioxo-2,3-dihydro-1H-2lambda*6*- benzo[c]thiophen-5-ylamino)-5-methyl-9-(3-methyl-butyl)-5,7,8,9-tetrahydro-pyrimido[4,5-b][1,4]diazepin-6-one], the IC50 was under 1 µM.

Turning to `CN1C(=O)CCN(C(C)(C)C)c2nc(Nc3ccc4c(c3)CS(=O)(=O)C4)ncc21` [compound 121, 9-tert-Butyl-2-(2,2-dioxo-2,3-dihydro-1H-2lambda*6*-benzo[c]thiophen-5-ylamino)-5-methyl-5,7,8,9-tetrahydro-pyrimido[4,5-b][1,4]diazepin-6-one], the IC50 was under 1 µM.

In the case of `CN1CCN(S(=O)(=O)c2ccc(Nc3ncc4c(n3)N(C3CCCC3)CCC(=O)N4C)cc2)CC1` [compound 105, 9-Cyclopentyl-5-methyl-2-[4-(4-methyl-piperazine-1-sulfonyl)-phenylamino]-5,7,8,9-tetrahydro-pyrimido[4,5-b][1,4]diazepin-6-one], the IC50 is under 1 µM.

As for `COc1ccc(N2CCC(=O)N(C)c3cnc(Nc4ccc5c(c4)CS(=O)(=O)C5)nc32)cc1` [compound 332, 2-(2,2-Dioxo-2,3-dihydro-1H-2lambda*6*- benzo[c]thiophen-5-ylamino)-9-(4-methoxy-phenyl)-5-methyl-5,7,8,9-tetrahydro-pyrimido[4,5-b][1,4]diazepin-6-one], the 50% inhibitory concentration (IC50) was under 0.1 µM.

As to `Cc1ccccc1N1CCC(=O)N(C)c2cnc(Nc3ccc4c(c3)CS(=O)(=O)C4)nc21` [compound 134, 2-(2,2-Dioxo-2,3-dihydro-1H-2lambda*6*- benzo[c]thiophen-5-ylamino)-5-methyl-9-o-tolyl-5,7,8,9-tetrahydro-pyrimido[4,5-b][1,4]diazepin-6-one], the IC50 was under 1 µM.

Turning to `CC(=O)NS(=O)(=O)c1ccc(Nc2ncc3c(n2)N(c2c(F)cccc2F)CCC(=O)N3C)cc1` [compound 351, N-Acetyl-4-[9-(2,6-difluoro-phenyl)-5-methyl-6-oxo-6,7,8,9-tetrahydro-5H-pyrimido[4,5-b][1,4]diazepin-2-ylamino]-benzenesulfonamide], the IC50 was under 0.1 µM.

For `COc1ccc(N2CCC(=O)N(C)c3cnc(Nc4ccc(S(=O)(=O)NC(C)=O)cc4)nc32)cc1` [compound 350, N-Acetyl-4-[9-(4-methoxy-phenyl)-5-methyl-6-oxo-6,7,8,9-tetrahydro-5H-pyrimido[4,5-b][1,4]diazepin-2-ylamino]-benzenesulfonamide], the IC50 is under 1 µM.

Consider `CCN1C(=O)CCN(c2c(F)cccc2F)c2nc(Nc3ccc4c(c3)CS(=O)(=O)C4)ncc21` [compound 340, 9-(2,6-Difluoro-phenyl)-2-(2,2-dioxo-2,3-dihydro-1H-2lambda*6*-benzo[c]thiophen-5-ylamino)-5-ethyl-5,7,8,9-tetrahydro-pyrimido[4,5-b][1,4]diazepin-6-one], for which the 50% inhibitory concentration (IC50) was under 1 µM.

Regarding `COc1cccc(N2CCC(=O)N(C)c3cnc(Nc4ccc5c(c4)CS(=O)(=O)C5)nc32)c1` [compound 136, 2-(2,2-Dioxo-2,3-dihydro-1H-2lambda*6*- benzo[c]thiophen-5-ylamino)-9-(3-methoxy-phenyl)-5-methyl-5,7,8,9-tetrahydro-pyrimido[4,5-b][1,4]diazepin-6-one], the half-inhibitory concentration (IC50) was under 1 µM.

Take `CN1C(=O)CCN(c2ccccc2)c2nc(Nc3ccc4c(c3)CS(=O)(=O)C4)ncc21` [compound 75, 2-(2,2-Dioxo-2,3-dihydro-1H-2lambda*6*- benzo[c]thiophen-5-ylamino)-5-methyl-9-phenyl-5,7,8,9-tetrahydro-pyrimido[4,5-b][1,4]diazepin-6-one]: the IC50 was under 0.1 µM.

(Values after patent publication US8563542B2 (Cyclacel Limited, priority 2007, dated 2013).)
